Reference: ChEMBL document CHEMBL1132081, “Design, synthesis, and structure-activity relationship studies of himbacine derived muscarinic receptor antagonists” (Bioorg Med Chem Lett, 1999)

Tests used:
[1] = molecular target: T1, Muscarinic acetylcholine receptor M1 (Homo sapiens, UniProt P11229); test: Binding affinity towards human muscarinic M1 receptor in CHO-KI cells using [3H]- QNB as radioligand; format: cell-based
T1 sequence (P11229 whole entry): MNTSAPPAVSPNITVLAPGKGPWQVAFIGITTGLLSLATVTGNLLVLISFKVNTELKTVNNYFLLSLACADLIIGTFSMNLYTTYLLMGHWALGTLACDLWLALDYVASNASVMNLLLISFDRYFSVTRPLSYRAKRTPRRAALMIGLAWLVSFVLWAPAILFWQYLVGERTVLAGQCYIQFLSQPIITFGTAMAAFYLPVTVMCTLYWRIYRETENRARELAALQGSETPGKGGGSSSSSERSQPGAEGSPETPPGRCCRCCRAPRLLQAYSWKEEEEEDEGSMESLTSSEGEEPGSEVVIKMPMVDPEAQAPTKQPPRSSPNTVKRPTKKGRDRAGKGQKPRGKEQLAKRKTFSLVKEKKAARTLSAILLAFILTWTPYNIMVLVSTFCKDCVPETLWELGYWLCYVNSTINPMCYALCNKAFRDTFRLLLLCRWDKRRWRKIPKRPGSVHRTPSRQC

[2] = molecular target: T2, Muscarinic acetylcholine receptor M2 (Homo sapiens, UniProt P08172); test: Binding affinity towards human muscarinic M2 receptor in CHO-KI cells using [3H]- QNB as radioligand; format: cell-based
T2 sequence (P08172 whole entry): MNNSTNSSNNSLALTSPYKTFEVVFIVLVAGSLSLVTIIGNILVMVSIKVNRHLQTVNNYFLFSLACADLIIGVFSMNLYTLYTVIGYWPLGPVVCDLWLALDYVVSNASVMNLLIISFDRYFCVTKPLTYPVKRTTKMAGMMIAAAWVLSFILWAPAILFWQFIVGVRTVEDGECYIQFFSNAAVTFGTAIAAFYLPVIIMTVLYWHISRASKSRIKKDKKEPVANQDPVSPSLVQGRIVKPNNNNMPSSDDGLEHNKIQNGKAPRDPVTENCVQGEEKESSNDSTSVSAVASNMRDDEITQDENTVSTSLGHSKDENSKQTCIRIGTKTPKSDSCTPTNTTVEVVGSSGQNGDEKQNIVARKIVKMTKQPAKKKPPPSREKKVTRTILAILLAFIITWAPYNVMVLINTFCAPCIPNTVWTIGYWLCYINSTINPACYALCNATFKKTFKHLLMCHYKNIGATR

Ki [1] [nM]	Ki [2] [nM]	Compound
179	189	C[C@@H]1OC(=O)[C@H]2C[C@H]3CCCC[C@@H]3[C@@H](CCCN3CCSCC3)[C@@H]12
38	13	C[C@@H]1OC(=O)[C@H]2C[C@H]3CCCC[C@@H]3[C@@H](CCCN3CCCC4CCCCC43)[C@@H]12 (stereo not given in full)
554	283	CC1CCN(CCC[C@@H]2[C@H]3CCCC[C@@H]3C[C@@H]3C(=O)O[C@@H](C)[C@H]23)CC1
376	312	CC1CCCN(CCC[C@@H]2[C@H]3CCCC[C@@H]3C[C@@H]3C(=O)O[C@@H](C)[C@H]23)C1 (stereo not given in full)
> 900	> 280	C[C@@H]1OC(=O)[C@H]2C[C@H]3CCCC[C@@H]3[C@@H](CCCN3CCC(O)CC3)[C@@H]12
581	> 500	C[C@@H]1OC(=O)[C@H]2C[C@H]3CCCC[C@@H]3[C@@H](CCCN3CCN[C@@H](C)C3)[C@@H]12
1530	148	C[C@@H]1OC(=O)[C@H]2C[C@H]3CCCC[C@@H]3[C@@H](CCCN3CCCC(O)C3)[C@@H]12 (stereo not given in full)
136	26	C[C@@H]1OC(=O)[C@H]2C[C@H]3CCCC[C@@H]3[C@@H](CCCNC34CC5CC(CC(C5)C3)C4)[C@@H]12
399	275	CC1CCCCN1CCC[C@@H]1[C@H]2CCCC[C@@H]2C[C@@H]2C(=O)O[C@@H](C)[C@H]12 (stereo not given in full)
427	352	C[C@@H]1OC(=O)[C@H]2C[C@H]3CCCC[C@@H]3[C@@H](CCCN3CCCCC3)[C@@H]12
857	> 500	C[C@@H]1CN(CCC[C@@H]2[C@H]3CCCC[C@@H]3C[C@@H]3C(=O)O[C@@H](C)[C@H]23)CCN1

Further lines, the molecule ahead of its results:

Compound	Ki [1] [nM]	Ki [2] [nM]
CC1CN(CCC[C@@H]2[C@H]3CCCC[C@@H]3C[C@@H]3C(=O)O[C@@H](C)[C@H]23)CC(C)N1 (stereo not given in full)	1360	> 500
CC1CN(CCC[C@@H]2[C@H]3CCCC[C@@H]3C[C@@H]3C(=O)O[C@@H](C)[C@H]23)C(C)CN1 (stereo not given in full)	353	570
C[C@@H]1OC(=O)[C@H]2C[C@H]3CCCC[C@@H]3[C@@H](CCCN3CCN(C)CC3)[C@@H]12	579	595
C[C@@H]1OC(=O)[C@H]2C[C@H]3CCCC[C@@H]3[C@@H](CCCN3CCc4ccccc4C3)[C@@H]12	304	184
C[C@@H]1OC(=O)[C@H]2C[C@H]3CCCC[C@@H]3[C@@H](CCCN3CCCC(C)(C)C3)[C@@H]12	416	224
C[C@@H]1OC(=O)[C@H]2C[C@H]3CCCC[C@@H]3[C@@H](/C=C/[C@H]3CCC[C@H](C)N3C)[C@@H]12 [HIMBACINE]	4.5	48.4
C[C@@H]1OC(=O)[C@H]2C[C@H]3CCCC[C@@H]3[C@@H](CCCN3CCNCC3)[C@@H]12	> 420	> 42
C[C@@H]1OC(=O)[C@H]2C[C@H]3CCCC[C@@H]3[C@@H](CCCN3CCC(N4CCCCC4)CC3)[C@@H]12	312	650
C[C@@H]1OC(=O)[C@H]2C[C@H]3CCCC[C@@H]3[C@@H](CCCN3CCN(C4CCCCC4)CC3)[C@@H]12	464	520
C[C@@H]1OC(=O)[C@H]2C[C@H]3CCCC[C@@H]3[C@@H](CCCN3CCN(C(=O)OC(C)(C)C)CC3)[C@@H]12	445	485
CC1CN(CCC[C@@H]2[C@H]3CCCC[C@@H]3C[C@@H]3C(=O)O[C@@H](C)[C@H]23)CC(C)O1 (stereo not given in full)	601	376
CCC1CCCCN1CCC[C@@H]1[C@H]2CCCC[C@@H]2C[C@@H]2C(=O)O[C@@H](C)[C@H]12 (stereo not given in full)	341	209
C[C@@H]1OC(=O)[C@H]2C[C@H]3CCCC[C@@H]3[C@@H](CCCN3CCOCC3)[C@@H]12	222	51
C[C@@H]1OC(=O)[C@H]2C[C@H]3CCCC[C@@H]3[C@@H](CC[C@H]3CCC[C@H](C)N3C)[C@@H]12	4.3	32.2
